In US8084399B2, “Process for screening of a binding amphiphilic peptides specific for hairpin RNA” (priority 2009, dated 2011):
Where no end group is shown, it is not given here. [ ]: non-standard residue; d: D form. Orn = NCCC[C@H](N)C(=O)O; Dap = NC[C@H](N)C(=O)O

Key:
IRES RNA [1] = assay: Solid surface method (biotin peptide on streptavidin plate, isotope-labeled RNA) with or without tRNAmix; type: binding, HCV; conditions: comparison with/without tRNAmix, in words
Protocol: Solid surface method was performed to investigate specificity to target RNA of the third generation peptides. Particularly, biotin was conjugated to N-terminal of the peptide, resulting in the preparation for streptavidin binding. 5′-end of target RNA was labeled with an isotope. Streptavidin coated plate was prepared, to which the amphiphilic peptide was adhered at different concentrations. The plate was reacted with a certain amount of the isotope-labeled RNA, followed by washing. Only the RNA conjugated with the amphiphilic peptide was obtained. IC50 was calculated based on the concentration of the target RNA. Experiments were performed in the presence and in the absence of tRNA^mix (Sigma-Aldrich, Germany), and the results were compared.

16S ribosomal RNA A-site = assay: Fluorescence anisotropy competition with Rev-N-rhodamine probe, binding to 16S A-site; conditions: 20° C., pH 7.4, read-out: Dissociation constant, 16S A-site
Summary of the method: (§1)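 Competitive fluorescence anisotropy at 20° C in 20 mM HEPES pH 7.4, 140 mM NaCl, 5 mM KCl, 1 mM MgCl2. Heat-refolded target RNA bound to 10 nM Rev-N-rhodamine probe; peptide titrated until anisotropy returned to baseline, and Kd fitted from a competition binding equation.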

IRES domain IV hairpin = assay: Fluorescence anisotropy competition with Rev-N-rhodamine probe, binding to IRES hairpin; parameters: species or system HCV; conditions: for differentiation coefficient (IRES): (mean Kd to other hairpin RNA)/(Kd to one hairpin RNA); for Kd: fluorescence anisotropy, 20° C., pH 7.4, read-out: Dissociation constant, IRES
Summary of the method: as §1

TAR hairpin RNA = assay: Fluorescence anisotropy competition with Rev-N-rhodamine probe, binding to TAR hairpin RNA; parameters: species or system HIV; conditions: fluorescence anisotropy, 20° C., pH 7.4; read-out: Dissociation constant, TAR
Summary of the method: as §1

RRE hairpin RNA = assay: Fluorescence anisotropy competition with Rev-N-rhodamine probe, binding to RRE hairpin RNA; parameters: species or system HIV; conditions: 20° C., pH 7.4, read-out: Dissociation constant, RRE
Summary of the method: as §1

IRES RNA [2] = assay: Tryptophan fluorescence strength on addition of target RNA; type: binding, HCV
Protocol: Fluorescence strength was measured to investigate target RNA binding of the third generation peptides. When tryptophan is activated by 285 nm light, it becomes fluorescent at the wavelength. Changes of fluorescence resulted from the binding respectively to different targets such as IRES, RRE, TAR and 16S A-site RNA, were measured. 0.02 equivalent of target RNA was added slowly to 1 uM peptide solution containing tryptophan.

[3] = Circular dichroism (CD), percentage of alpha-helix; type: physicochemical; conditions: CD at 20° C., condition not given; for Alpha-helical rate (%), second value of pair: value after the slash; for Alpha-helical rate (%), first value of pair: value before the slash
Summary of the method: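 Spectra recorded at 20 °C, 190–250 nm, three averaged scans, background-corrected and converted to mean residue ellipticity. Helix fraction derived from [θ] at 222 nm relative to full-helix and random-coil reference values, which depend on residue number and temperature.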

| Substance | IC50 to IRES RNA in the presence or in the absence of tRNAmix (IRES RNA [1]) | Kd (16S ribosomal RNA A-site) [nM] | differentiation coefficient (IRES) (IRES domain IV hairpin) | Kd (IRES domain IV hairpin) [nM] | Kd (TAR hairpin RNA) [nM] | Kd (RRE hairpin RNA) [nM] | Fluorescence strength of tryptophan at #7 reduced from that of tryptophan at #14 of peptide 3h (IRES RNA [2]; in the presence of IRES) [fold] | Alpha-helical rate (%), second value of pair [3] [%] | Alpha-helical rate (%), first value of pair [3] [%] | binding strength to IRES, in words (IRES domain IV hairpin; compared with the original peptide) | Fluorescence strength of tryptophan reduced by (IRES RNA [2]; wavelength moved to shorter site, IRES) [fold] |
| --- | --- | --- | --- | --- | --- | --- | --- | --- | --- | --- | --- |
| LKKLLKWLOrnKLLDapLAG (LKKLLKWL[Orn]KLL[Dap]LAG-NH2; N-terminus assumed; SMILES CC(C)C[C@H](NC(=O)[C@H](CN)NC(=O)[C@H](CC(C)C)NC(=O)[C@H](CC(C)C)NC(=O)[C@H](CCCCN)NC(=O)[C@H](CCCN)NC(=O)[C@H](CC(C)C)NC(=O)[C@H](Cc1c[nH]c2ccccc12)NC(=O)[C@H](CCCCN)NC(=O)[C@H](CC(C)C)NC(=O)[C@H](CC(C)C)NC(=O)[C@H](CCCCN)NC(=O)[C@H](CCCCN)NC(=O)[C@@H](N)CC(C)C)C(=O)N[C@@H](C)C(=O)NCC(N)=O) [peptide 3d, third generation peptide, both faces modified] | not much different | 25 | 45 | 0.55 | 24 | 26 | 2.3 | 38 | 32 | – | – |
| LKKLLKLLKKLLKWAG [2u, tryptophan scanned second generation peptide] | – | 3.3 | 14 | 0.69 | 7.8 | 18 | – | 52 | 20 | significantly increased | 1.6 |
